Assays:
Glucocorticoid receptor = molecular target: T1, Glucocorticoid receptor (Homo sapiens, UniProt P04150); experiment: Agonist activity at glucocorticoid receptor (unknown origin) incubated for 24 hrs by cell based microplate analysis
T1 sequence (P04150 whole entry): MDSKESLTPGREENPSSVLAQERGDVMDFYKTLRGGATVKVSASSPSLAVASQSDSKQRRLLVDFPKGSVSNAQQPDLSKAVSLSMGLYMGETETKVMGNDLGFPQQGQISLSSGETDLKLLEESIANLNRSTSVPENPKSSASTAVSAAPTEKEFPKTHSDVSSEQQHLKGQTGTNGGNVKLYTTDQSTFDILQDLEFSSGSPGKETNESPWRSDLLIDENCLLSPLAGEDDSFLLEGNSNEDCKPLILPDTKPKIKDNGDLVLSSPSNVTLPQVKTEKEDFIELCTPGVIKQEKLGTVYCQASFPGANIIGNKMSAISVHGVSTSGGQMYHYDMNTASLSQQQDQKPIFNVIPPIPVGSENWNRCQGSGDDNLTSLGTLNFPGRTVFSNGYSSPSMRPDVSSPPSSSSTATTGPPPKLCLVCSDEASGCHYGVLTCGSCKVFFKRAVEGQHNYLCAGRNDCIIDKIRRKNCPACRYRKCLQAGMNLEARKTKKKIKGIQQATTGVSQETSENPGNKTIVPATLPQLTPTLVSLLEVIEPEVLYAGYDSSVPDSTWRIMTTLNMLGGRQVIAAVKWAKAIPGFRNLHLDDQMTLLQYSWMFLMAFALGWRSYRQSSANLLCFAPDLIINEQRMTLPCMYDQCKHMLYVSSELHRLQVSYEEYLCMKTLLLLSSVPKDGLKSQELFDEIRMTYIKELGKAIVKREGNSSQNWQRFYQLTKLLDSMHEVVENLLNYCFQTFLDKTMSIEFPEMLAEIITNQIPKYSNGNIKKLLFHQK

[1] = Retention time of the compound by HPLC analysis; assay type: physicochemical

| Structure (SMILES) | EC50 (Glucocorticoid receptor) | Retention_time [1] |
| --- | --- | --- |
| CCN(C[C@@](O)(CNC(=O)c1cnn(-c2ccc(F)cc2)c1N)C(F)(F)F)C(=O)c1c(F)cccc1F | 5 nM | 2.228 min |
| CCc1ccccc1C(=O)N(CC)C[C@@](O)(CNC(=O)c1cnn(-c2ccc(F)cc2)c1N)C(F)(F)F | 4 nM | 2.353 min |
| CCN(C[C@@](O)(CNC(=O)c1cnn(-c2ccc(F)cc2)c1N)C(F)(F)F)C(=O)c1ccccc1C |  | 2.179 min |
| CCN(C[C@@](O)(CNC(=O)c1cnn(-c2ccc(F)cc2)c1N)C(F)(F)F)C(=O)c1ccccc1Cl |  | 2.238 min |
| CCN(C[C@@](O)(CNC(=O)c1cnn(-c2ccc(F)cc2)c1N)C(F)(F)F)C(=O)c1ccccc1F | 26 nM | 2.249 min |
| CCc1cccc(CC)c1C(=O)N(CC)C[C@@](O)(CNC(=O)c1cnn(-c2ccc(F)cc2)c1N)C(F)(F)F | 122 nM | 2.544 min |
| CCN(C[C@@](O)(CNC(=O)c1cnn(-c2ccc(F)cc2)c1N)C(F)(F)F)C(=O)c1ccccc1 | 78 nM | 2.163 min |
| CCc1cccc(C)c1C(=O)N(CC)C[C@@](O)(CNC(=O)c1cnn(-c2ccc(F)cc2)c1N)C(F)(F)F (stereo in doubt; 13a) |  | 2.394 min |
| CCc1cccc(C)c1C(=O)N(CC)C[C@@](O)(CNC(=O)c1cnn(-c2ccc(F)cc2)c1N)C(F)(F)F (stereo in doubt; 13b) |  | 2.417 min |
| CCc1cccc(Cl)c1C(=O)N(CC)C[C@@](O)(CNC(=O)c1cnn(-c2ccc(F)cc2)c1N)C(F)(F)F (stereo in doubt; 14a) | 9 nM | 2.39 min |
| CCc1cccc(Cl)c1C(=O)N(CC)C[C@@](O)(CNC(=O)c1cnn(-c2ccc(F)cc2)c1N)C(F)(F)F (stereo in doubt; 14b) | 0.5 nM | 2.396 min |

More lines, now with the values ahead:

| EC50 (Glucocorticoid receptor) | Retention_time [1] | Structure (SMILES) |
| --- | --- | --- |
| 2 nM | 2.337 min | CCN(C[C@@](O)(CNC(=O)c1cnn(-c2ccc(F)cc2)c1N)C(F)(F)F)C(=O)c1c(Cl)cccc1Cl |
|  | 3.06 min | CCN(C[C@](O)(CNC(=O)c1cnn(-c2ccc(F)cc2)c1N)C(F)(F)F)C(=O)c1c(Cl)cccc1Cl |
| 2 nM | 2.979 min | CCN(C[C@@](O)(CNC(=O)c1cnn(-c2ccc(F)cc2)c1N)C(F)(F)F)C(=O)c1c(F)cccc1Cl |
|  | 2.279 min | CCN(C[C@@](O)(CNC(=O)c1cnn(-c2ccc(F)cc2)c1N)C(F)(F)F)C(=O)c1c(C)cccc1F |
|  | 2.349 min | CCN(C[C@@](O)(CNC(=O)c1cnn(-c2ccc(F)cc2)c1N)C(F)(F)F)C(=O)c1c(C)cccc1C |
| 2 nM | 2.314 min | CCN(C[C@@](O)(CNC(=O)c1cnn(-c2ccc(F)cc2)c1N)C(F)(F)F)C(=O)c1c(C)cccc1Cl (stereo in doubt; 10a) |
| 4 nM | 2.36 min | CCN(C[C@@](O)(CNC(=O)c1cnn(-c2ccc(F)cc2)c1N)C(F)(F)F)C(=O)c1c(C)cccc1Cl (stereo in doubt; 10b) |

Reference: ChEMBL document CHEMBL5550198, “Impact of atropisomerism on a non-steroidal glucocorticoid receptor agonist” (RSC Med Chem, 2024)
